Assay results: patent US20240033272A1, “USE OF C[…] THE TREATMENT OF SEIZURES ASSOCIATED WITH HERPES SIMPLEX VIRUS” (GW Research Limited, priority 2020, published 2024)
Entries after “also recorded” stand apart in the source; their conditions may differ.

System: patients diagnosed with herpes simplex virus (seizures associated with herpes simplex virus)
Experiment: Open label, expanded-access program: seizure frequency recorded by caregivers in a diary, change relative to baseline
Type: in vivo, human
Set-up: Reduction in myoclonic seizures over the treatment period / Reduction in absence seizures over the treatment period / Reduction in focal seizures with impairment over the treatment period / Reduction in tonic-clonic seizures over the treatment period / Reduction in atonic seizures over the treatment period / Reduction in tonic seizures over the treatment period: concentration or dose not given beside the values; Seizure frequency, tonic-clonic / Seizure frequency, myoclonic / Seizure frequency, absence / Seizure frequency, focal with impairment / Seizure frequency, tonic / Seizure frequency, focal without impairment / Seizure frequency, atonic: unit not given here
Details: for Seizure frequency, focal with impairment: baseline 14.0; for Seizure frequency, absence: baseline 28.0; for Seizure frequency, myoclonic: baseline 59.0; for Seizure frequency, tonic: baseline 24.0
Procedure: Subjects were required to be on one or more AEDs at stable doses for a minimum of two weeks prior to baseline and to have stable vagus nerve stimulation (VNS) settings and ketogenic diet ratios for a minimum of four weeks prior to baseline.
Modifications were made to concomitant AEDs as per clinical indication.
Seizure frequency, intensity, and duration were recorded by caregivers in a diary during a baseline period of at least 28 days. Changes in seizure frequency relative to baseline were calculated after at least 2 weeks and at defined timepoints of treatment.
Patients may be defined as responders if they had more than 50% reduction in seizure frequency compared to baseline. The percent change in seizure frequency was calculated as follows: […]
The percent change of seizure frequency may be calculated for any time interval where seizure number has been recorded. For the purpose of this example the percent change of seizure frequency for the end of the treatment period was calculated as follows: […]

[1] = Patient 4, treated for 24 weeks, vs baseline
[2] = Patient 5, 4 weeks, CBD 20.0 mg/kg/day
[3] = Patient 5, 8 weeks, CBD 25.0 mg/kg/day
[4] = Patient 5, 12 weeks, CBD 25.0 mg/kg/day
[5] = Patient 5, 16 weeks, CBD 25.0 mg/kg/day
[6] = Patient 5, 24 weeks, CBD 30.0 mg/kg/day
[7] = Patient 5, 36 weeks, CBD 40.0 mg/kg/day
[8] = Patient 5, 60 weeks, CBD 50.0 mg/kg/day
[9] = Patient 5, 72 weeks, CBD 50.0 mg/kg/day
[10] = Patient 5, 84 weeks, CBD 30.0 mg/kg/day
[11] = Patient 5, 96 weeks, CBD 45.0 mg/kg/day
[12] = Patient 5, 108 weeks, CBD 45.0 mg/kg/day
[13] = Patient 5, 120 weeks, CBD 45.0 mg/kg/day
[14] = Patient 5, 132 weeks, CBD 45.0 mg/kg/day
[15] = Patient 5, 144 weeks, CBD 45.0 mg/kg/day
[16] = Patient 5, treated for 144 weeks, vs baseline

C=C(C)[C@@H]1CCC(C)=C[C@H]1c1c(O)cc(CCCCC)cc1O [CBD, cannabidiol]
Seizure frequency, tonic-clonic (Patient 4, 16 weeks, CBD 15.0 mg/kg/day, baseline 10.0): 0.7 | Seizure frequency, focal with impairment (Patient 4, 16 weeks, CBD 15.0 mg/kg/day): 2.7 | Seizure frequency, atonic (Patient 4, 16 weeks, CBD 15.0 mg/kg/day, baseline 20.0): 14.0 | Seizure frequency, tonic-clonic (Patient 4, 24 weeks, CBD 15.0 mg/kg/day, baseline 10.0): 10.0 | Seizure frequency, focal with impairment (Patient 4, 24 weeks, CBD 15.0 mg/kg/day): 3.0 | Seizure frequency, atonic (Patient 4, 24 weeks, CBD 15.0 mg/kg/day, baseline 20.0): 13.0 | Reduction in atonic seizures over the treatment period [1]: 35% | Reduction in focal seizures with impairment over the treatment period [1]: 78.6% | Seizure frequency, absence [2]: 45.0 | Seizure frequency, myoclonic [2]: 75.0 | Seizure frequency, tonic-clonic (Patient 5, 4 weeks, CBD 20.0 mg/kg/day, baseline 71.0): 75.0 | Seizure frequency, atonic (Patient 5, 4 weeks, CBD 20.0 mg/kg/day, baseline 748.0): 965.0 | Seizure frequency, absence [3]: 0.0 | Seizure frequency, myoclonic [3]: 60.0 | Seizure frequency, tonic-clonic (Patient 5, 8 weeks, CBD 25.0 mg/kg/day, baseline 71.0): 7.0 | Seizure frequency, atonic (Patient 5, 8 weeks, CBD 25.0 mg/kg/day, baseline 748.0): 8.0 | Seizure frequency, absence [4]: 0.0 | Seizure frequency, myoclonic [4]: 1.0 | Seizure frequency, tonic-clonic (Patient 5, 12 weeks, CBD 25.0 mg/kg/day, baseline 71.0): 4.0 | Seizure frequency, atonic (Patient 5, 12 weeks, CBD 25.0 mg/kg/day, baseline 748.0): 25.0 | Seizure frequency, absence [5]: 0.0 | Seizure frequency, myoclonic [5]: 0.0 | Seizure frequency, tonic-clonic (Patient 5, 16 weeks, CBD 25.0 mg/kg/day, baseline 71.0): 10.0 | Seizure frequency, atonic (Patient 5, 16 weeks, CBD 25.0 mg/kg/day, baseline 748.0): 53.0 | Seizure frequency, absence [6]: 0.0 | Seizure frequency, myoclonic [6]: 68.0 | Seizure frequency, tonic-clonic (Patient 5, 24 weeks, CBD 30.0 mg/kg/day, baseline 71.0): 40.0 | Seizure frequency, absence [7]: 0.0 | Seizure frequency, myoclonic [7]: 129.0 | Seizure frequency, tonic-clonic (Patient 5, 36 weeks, CBD 40.0 mg/kg/day, baseline 71.0): 76.0 | Seizure frequency, atonic (Patient 5, 36 weeks, CBD 40.0 mg/kg/day, baseline 748.0): 44.0 | Seizure frequency, absence [8]: 0.0 | Seizure frequency, myoclonic [8]: 184.0 | Seizure frequency, tonic-clonic (Patient 5, 60 weeks, CBD 50.0 mg/kg/day, baseline 71.0): 137.0 | Seizure frequency, atonic (Patient 5, 60 weeks, CBD 50.0 mg/kg/day, baseline 748.0): 45.0 | Seizure frequency, absence [9]: 3.0 | Seizure frequency, myoclonic [9]: 141.0 | Seizure frequency, tonic-clonic (Patient 5, 72 weeks, CBD 50.0 mg/kg/day, baseline 71.0): 130.0 | Seizure frequency, atonic (Patient 5, 72 weeks, CBD 50.0 mg/kg/day, baseline 748.0): 46.3 | Seizure frequency, absence [10]: 5.7 | Seizure frequency, myoclonic [10]: 81.0 | Seizure frequency, tonic-clonic (Patient 5, 84 weeks, CBD 30.0 mg/kg/day, baseline 71.0): 77.0 | Seizure frequency, atonic (Patient 5, 84 weeks, CBD 30.0 mg/kg/day, baseline 748.0): 39.3 | Seizure frequency, absence [11]: 8.0 | Seizure frequency, myoclonic [11]: 41.0 | Seizure frequency, tonic-clonic (Patient 5, 96 weeks, CBD 45.0 mg/kg/day, baseline 71.0): 72.0 | Seizure frequency, atonic (Patient 5, 96 weeks, CBD 45.0 mg/kg/day, baseline 748.0): 97.0 | Seizure frequency, absence [12]: 11.0 | Seizure frequency, myoclonic [12]: 64.0 | Seizure frequency, tonic-clonic (Patient 5, 108 weeks, CBD 45.0 mg/kg/day, baseline 71.0): 53.0 | Seizure frequency, atonic (Patient 5, 108 weeks, CBD 45.0 mg/kg/day, baseline 748.0): 92.0 | Seizure frequency, absence [13]: 11.3 | Seizure frequency, myoclonic [13]: 53.0 | Seizure frequency, tonic-clonic (Patient 5, 120 weeks, CBD 45.0 mg/kg/day, baseline 71.0): 44.3 | Seizure frequency, atonic (Patient 5, 120 weeks, CBD 45.0 mg/kg/day, baseline 748.0): 72.3 | Seizure frequency, absence [14]: 18.8 | Seizure frequency, myoclonic [14]: 66.4 | Seizure frequency, tonic-clonic (Patient 5, 132 weeks, CBD 45.0 mg/kg/day, baseline 71.0): 40.4 | Seizure frequency, atonic (Patient 5, 132 weeks, CBD 45.0 mg/kg/day, baseline 748.0): 128.0 | Seizure frequency, absence [15]: 49.6 | Seizure frequency, myoclonic [15]: 78.0 | Seizure frequency, tonic-clonic (Patient 5, 144 weeks, CBD 45.0 mg/kg/day, baseline 71.0): 18.0 | Seizure frequency, atonic (Patient 5, 144 weeks, CBD 45.0 mg/kg/day, baseline 748.0): 78.4 | Reduction in atonic seizures over the treatment period [16]: 89.5% | Reduction in tonic-clonic seizures over the treatment period [16]: 76.4% | Seizure frequency, tonic (Patient 6, 2 weeks, CBD 5.0 mg/kg/day): 40.0 | Seizure frequency, tonic (Patient 6, 4 weeks, CBD 10.0 mg/kg/day): 20.0 | Seizure frequency, tonic (Patient 6, 8 weeks, CBD 20.0 mg/kg/day): 32.0 | Seizure frequency, tonic (Patient 6, 12 weeks, CBD 25.0 mg/kg/day): 12.0 | Seizure frequency, tonic (Patient 6, 24 weeks, CBD 25.0 mg/kg/day): 15.2 | Seizure frequency, tonic (Patient 6, 36 weeks, CBD 25.0 mg/kg/day): 15.2 | Seizure frequency, tonic (Patient 6, 48 weeks, CBD 25.0 mg/kg/day): 18.0 | Seizure frequency, tonic (Patient 6, 60 weeks, CBD 25.0 mg/kg/day): 19.2 | Reduction in tonic seizures over the treatment period (Patient 6, treated for 60 weeks, vs baseline): 20% | Reductions in seizures over period of treatment, overall (all six patients, tonic, tonic-clonic, atonic, myoclonic, absence and focal seizures with impairment): 20-100% | Benefit in patients with focal seizures with impairment (in words) (patients 1 and 4): significant benefit | Effect on seizure frequency (in words) (six patients, tonic, tonic-clonic, atonic, myoclonic, absence and focal seizures with impairment): effective in reducing the frequency; also recorded: significantly reduce the number of seizures; also recorded: significant reduction
